Reference: paper PMC7815396, “Hypoglycemic Effect of Calea urticifolia (Mill.) DC” (Evidence-based Complementary and Alternative Medicine : eCAM, 2021)

Columns and labels:
[1] = target: T1, alpha-glucosidases from Saccharomyces cerevisiae; test: p-nitrophenol release at […] nm; format: biochemical; details: 2 mM p-nitrophenyl-alpha-D-glucopyranoside; 0.1 M phosphate pH 6.8
T1 construct: gene MAL12; commercial yeast enzyme (Sigma G5003), native

[2] = target: T2, alpha-glucosidases from rat intestine; test: p-nitrophenol release at […] nm; format: biochemical; details: 2 mM p-nitrophenyl-alpha-D-glucopyranoside; 0.1 M phosphate pH 6.8; crude intestinal extract
T2 construct: gene Si; crude rat intestinal extract (Sigma I1630); enzymes not separated

C[C@H]1O[C@H](O[C@H]2[C@H](O)[C@@H](O)[C@@H](O[C@H]3[C@H](O)[C@@H](O)C(O)O[C@@H]3CO)O[C@@H]2CO)[C@H](O)[C@@H](O)[C@@H]1N[C@H]1C=C(CO)[C@@H](O)[C@H](O)[C@H]1O (some centres unmarked) [Acarbose]
S. cerevisiae / α-Glucosidase enzymes / IC50 [1]: 231.9 µg/mL
Rat intestine / α-Glucosidase enzymes / IC50 [2]: 18.6 µg/mL
